This is an account of results in ChEMBL document CHEMBL1201862, “PubChem BioAssay data set” (2004).

Some test systems named below: DU-145; EKVX; HCT-116; HCT-15; HOP-62; MDA-MB-435; MDA-N; NCI-H226; NCI-H460; OVCAR-3; SF-268; SF-295; SK-MEL-28; SK-MEL-2; SK-MEL-5; SN12C; T47D; TK-10; U-251; MOLT-4.
What all share (experiment): NCI anticancer screen, dose series, 48 h

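Assay format: 96-well plates, 48-hour exposure. GI50 marks 50% less growth.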 The source made the active and inactive calls. No stated cut-off is given here; in the data, active = GI50 up to about 1.1 µM and inactive = higher.

For the molecule `NC1CC(=O)c2cc(Cl)sc21` (stereo not given), the GI50 in the assay with DU-145 was > 100 µM (inactive); with EKVX, > 100 µM (inactive); with HCT-116, > 100 µM (inactive); with HCT-15, over 100 µM; with HOP-62, > 100 µM (inactive); in the assay on MDA-MB-435, > 100 µM (inactive). Besides, the GI50 in the assay with MDA-N, with NCI-H226, with NCI-H460, in the assay on OVCAR-3, in the assay on SF-268 and in the assay on SF-295 was > 100 µM (inactive) each time. Also, the GI50 with SK-MEL-28, in the assay with SK-MEL-2, in the assay with SK-MEL-5, with SN12C, in the assay on T47D and with TK-10 was > 100 µM (inactive) each time. In addition, in the assay with U-251, the GI50 was > 100 µM (inactive).
With `COc1cc(C#CC(=O)OC/C=C/c2ccc3c(c2)OCO3)cc(OC)c1OC`, the GI50 is 42.6 µM (inactive) in the assay on DU-145; 31.6 µM (inactive) in the assay on EKVX; 22.7 µM (inactive) with HCT-116; 24.9 µM with HCT-15; 24 µM (inactive) with HOP-62; 18.5 µM (inactive) in the assay on MDA-MB-435. Further, the GI50 with MDA-N was 18.5 µM (inactive); in the assay on NCI-H226, 21.4 µM (inactive); in the assay with NCI-H460, 24.9 µM (inactive); in the assay on OVCAR-3, 26.5 µM (inactive); with SF-268 it was 19.5 µM (inactive); with SF-295 it was 36.1 µM (inactive). In addition, the GI50 is > 100 µM (inactive) with SK-MEL-28; 10 µM (inactive) in the assay with SK-MEL-2; 17.5 µM (inactive) with SK-MEL-5; 31.2 µM (inactive) in the assay with SN12C; 59.6 µM (inactive) in the assay on T47D; 21.4 µM (inactive) in the assay on TK-10. Also, in the assay with U-251, the GI50 is 29.4 µM (inactive).
Consider `O=S1(=O)NC2CCC3NS(=O)(=O)NC4CCC(N1)N4S(=O)(=O)N23` (stereo not given), for which the GI50 with DU-145 was > 100 µM (inactive); in the assay on EKVX it was > 100 µM (inactive); in the assay on HCT-116, > 100 µM (inactive); in the assay on HCT-15, over 100 µM; in the assay with HOP-62, > 100 µM (inactive); in the assay with MDA-MB-435 it was > 100 µM (inactive). Further, the GI50 in the assay on MDA-N, in the assay with NCI-H226, in the assay on NCI-H460, in the assay on OVCAR-3, in the assay with SF-268 and with SF-295 was > 100 µM (inactive) each time. Besides, the GI50 in the assay with SK-MEL-28, in the assay on SK-MEL-2, with SK-MEL-5, in the assay on SN12C, in the assay with T47D and in the assay with TK-10 was > 100 µM (inactive) throughout. The GI50 in the assay with U-251 is > 100 µM (inactive).
Regarding `Cc1cc(S(=O)(=O)N=C2NCC(C)(C)CN2)c(S)cc1Cl`, the GI50 in the assay with DU-145 was 83.6 µM (inactive); with EKVX, 48.8 µM (inactive); with HCT-116, 27.5 µM (inactive); in the assay with HCT-15 it was 42.7 µM; with HOP-62, 52.6 µM (inactive); in the assay on MDA-MB-435, 23.2 µM (inactive). The GI50 in the assay with MDA-N is 22.2 µM (inactive); with NCI-H226, 32.1 µM (inactive); with NCI-H460, 27.3 µM (inactive); in the assay with OVCAR-3, 35.7 µM (inactive); with SF-268, 73.3 µM (inactive); in the assay on SK-MEL-28, 36.6 µM (inactive). In addition, the GI50 was 21.3 µM (inactive) in the assay with SK-MEL-2; 17.2 µM (inactive) with SK-MEL-5; 47.1 µM (inactive) with SN12C; 42.1 µM (inactive) in the assay with T47D; 39 µM (inactive) with TK-10; 23.7 µM (inactive) in the assay with U-251.
As to `Nc1nc(N)c(C2=CCN(Cc3ccccc3)CC2)c(=O)[nH]1`, the GI50 was > 100 µM (inactive) with DU-145; > 100 µM (inactive) with EKVX; > 100 µM (inactive) with HCT-116; over 100 µM with HCT-15; > 100 µM (inactive) in the assay on HOP-62; > 100 µM (inactive) with MDA-MB-435. Also, the GI50 in the assay with MDA-N, with MOLT-4, in the assay with NCI-H226, in the assay with NCI-H460, with OVCAR-3 and in the assay with SF-268 was > 100 µM (inactive) in each case. Moreover, the GI50 in the assay with SF-295, in the assay with SK-MEL-28, in the assay on SK-MEL-2, with SK-MEL-5, in the assay with SN12C and with T47D was > 100 µM (inactive) throughout. The GI50 in the assay with U-251 is > 100 µM (inactive).
For the molecule `COc1ccc(P2(=S)Oc3ccccc3-c3ccccc3O2)cc1`, the GI50 in the assay on DU-145 is 0.542 µM (active); in the assay on HCT-116, 0.524 µM (active); with HCT-15, 0.48 µM; with HOP-62 it was 0.44 µM (active); in the assay with MDA-MB-435, 0.144 µM (active); in the assay on MDA-N it was 0.147 µM (active). The GI50 in the assay with MOLT-4 is 0.437 µM (active); in the assay with NCI-H226, 7.1 µM (inactive); with NCI-H460, 0.35 µM (active); in the assay with OVCAR-3, 0.226 µM (active); in the assay with SF-268, 1.5 µM (inactive); in the assay on SF-295, 0.296 µM (active). For the same molecule, the GI50 in the assay with SK-MEL-28 is > 67.1 µM (inactive); in the assay on SK-MEL-2, 0.596 µM (active); with SK-MEL-5, 0.365 µM (active); with SN12C it was 0.37 µM (active); with T47D it was 36.1 µM (inactive); with U-251 it was 0.429 µM (active).
For `O=C(O)CN1C(=O)C(Cc2ccc(O)cc2)N=C(c2cccc(O)c2)c2ccccc21` (stereo not given), the GI50 is > 100 µM (inactive) in the assay on DU-145; > 100 µM (inactive) in the assay with EKVX; > 100 µM (inactive) in the assay on HCT-116; over 100 µM in the assay with HCT-15; > 100 µM (inactive) in the assay with HOP-62; > 100 µM (inactive) with MDA-MB-435. Moreover, the GI50 in the assay on MDA-N was 11.5 µM (inactive); with MOLT-4, > 100 µM (inactive); with NCI-H226, > 100 µM (inactive); in the assay with NCI-H460, > 100 µM (inactive); with OVCAR-3, > 100 µM (inactive); in the assay on SF-268, > 100 µM (inactive). Also, the GI50 with SF-295 is > 100 µM (inactive); in the assay with SK-MEL-28 it was > 100 µM (inactive); with SK-MEL-2 it was > 100 µM (inactive); with SN12C, 19 µM (inactive); in the assay with T47D, > 100 µM (inactive); in the assay with TK-10 it was > 100 µM (inactive). Besides, the GI50 in the assay on U-251 was > 100 µM (inactive).
`CC[C@]12C=CCN3CCC4(c5cc([C@@]6(C(=O)OC)CC7CN(CCc8c6[nH]c6ccccc86)C[C@@H]6CCCC[C@H]76)c(OC)cc5N(C)C4[C@](O)(C(=O)OC)C1OC(C)=O)[C@@H]32` (stereo not given in full): the GI50 in the assay on DU-145 is < 0.01 µM (active); in the assay on HCT-116 it was < 0.01 µM (active); with HCT-15, under 0.01 µM; in the assay on HOP-62, < 0.01 µM (active); in the assay with MDA-MB-435, < 0.01 µM (active); in the assay with MDA-N, < 0.01 µM (active). Moreover, the GI50 in the assay on MOLT-4, with NCI-H226, in the assay with NCI-H460, in the assay with OVCAR-3, with SF-268 and in the assay with SF-295 was < 0.01 µM (active) in each case. Besides, the GI50 was 2.11 µM (inactive) in the assay on SK-MEL-28; < 0.01 µM (active) in the assay with SK-MEL-2; < 0.01 µM (active) with SK-MEL-5; < 0.01 µM (active) in the assay on SN12C; 18.2 µM (inactive) in the assay on T47D; < 0.01 µM (active) in the assay on TK-10. Also, the GI50 in the assay with U-251 was < 0.01 µM (active).
